# Experimental data as given in patent publication US20140221372A1, “METHOD OF ADMINISTRATION AND TREATMENT” (GlaxoSmithKline Intellectual Property (NO 2.) Limited, priority 2013, published 2014).
# “And” between values parts separate entries of the source, which are not always exact repeats. Equal values may be shown once.
# How the values were obtained:
# Assay type in all cases: in vivo, human
# [1] = system: CAF (Cytokine and Angiogenic Factor) levels; assay: Circulating pharmacodynamic markers: CAF time course, percent change from baseline (Searchlight platform)
# Method: (§1) Blood was collected at baseline (Day 1) and post treatment with 30 mg/daily of foretinib on Days 8, 15, and 22. CAF (Cytokine and Angiogenic Factor) levels were determined. CAF levels were determined by using the Searchlight platform (Aushon Biosciences). Levels of circulating sMET and HGF were determined using Meso Scale Discovery Platform (Don Bottaro, National Cancer Institute [NCI]). The biomarker analysis population was predefined to include patients who met the following criteria: • Patient is in a 30 mg cohort. • Pharmacodynamic (PD)-sample data available at baseline and for at least 1 post-baseline timepoint, and • Patient received at least 75% of planned doses up to time of last PD sample. CAF percent changes from baseline were assessed for each CAF, at each time point, for available data in the biomarker population, using the Wilcoxon Signed Rank Test.
# [2] = system: hepatocellular carcinoma patients; assay: Association between baseline (Day 1) CAF levels and TTP / OS in patients on foretinib
# Method: Blood was collected at baseline (Day 1) and post treatment with 30 mg/daily of foretinib on Days 8, 15, and 22. CAF (Cytokine and Angiogenic Factor) levels were determined. CAF levels were determined by using the Searchlight platform (Aushon Biosciences). Levels of circulating sMET and HGF were determined using Meso Scale Discovery Platform (Don Bottaro, National Cancer Institute [NCI]).
# The biomarker analysis population was predefined to include patients who met the following criteria: • Patient is in a 30 mg cohort. • Pharmacodynamic (PD)-sample data available at baseline and for at least 1 post-baseline timepoint, and • Patient received at least 75% of planned doses up to time of last PD sample.
# Association between day 1 CAF levels and TTP was assessed using univariate and multivariate (covariate adjusted) proportional hazards regression analysis. CAF data were transformed (log2) where appropriate.
# Association between day 1 CAF levels and OS was assessed using univariate and multivariate (covariate adjusted) proportional hazards regression analysis. CAF data were transformed (log2) where appropriate. For statistically significant CAF's in the OS statistical models, a combined model of the significant CAF's will be explored, in which an optimal predictive combination of the CAF's (including optimal cutoffs) will be investigated. The method employed to explore the CAF's will depend upon the number of significant CAF's, and will be described in the results section.
# sMET = assay: Circulating sMET level, percent change from baseline (Meso Scale Discovery Platform); conditions: Day 8, 30 mg/daily
# Method: as §1
# [3] = system: hepatocellular cancer (HCC) subjects; assay: Pharmacogenetic analysis: association of genetic variants with TTP and OS in Asian HCC subjects receiving foretinib; conditions: foretinib 30 mg QD; for Median TTP: (95% CI)
# Method: Asian HCC subjects treated with the maximum tolerated dose (MTD) of 30 mg QD and provided informed consent and blood sample for PGx research (n=31 of 39 subjects treated) were selected for PGx analysis. Of the 31 subjects who provided consent, 28 subjects were evaluable for objective response rate (ORR) and 30 for time to progression (TTP) and overall survival (OS).
# Venous blood was collected from each PGx consented subject into an ethylenediaminetetraacetic acid (EDTA) vacutainer for PGx analysis. DNA was extracted using the Qiagen Autopure automated DNA extraction by Covance (Indianapolis, Ind., USA) and was genotyped for 20 single nucleotide polymorphisms (SNPs) with potential functional consequence from 13 candidate genes. The list of the genetic variants including their unique identifier (rs ID) and allele frequency in Asian population is included in Table 1. Genotyping of the SNPs was done via Sanger sequencing, or using custom TaqMan® SNP genotyping assays (Applied Biosystems, Foster City, Calif., USA) internally at GlaxoSmithKline or via TaqMan® custom or Assay on Demand genotyping assays (Applied Biosystems, Foster City, Calif., USA) by Gen-Probe (Wythenshawe, Manchester, UK).
# Association with ORR was evaluated using Fisher's Exact Test (FET). Association with TTP and OS was tested using time-to-event (progression) models, using the Score (log rank) test. Since one of the haplotypes CAT (a unique combination of ‘C’, ‘A’, and ‘T’ alleles of SNPs—rs2307424, rs2307418, and rs4073054, respectively) in gene NR1I3/CAR (nuclear receptor subfamily 1, group I, member 3/constitutive androstane receptor) was previously reported to be associated with worse progression-free survival in sunitinib-treated renal cell carcinoma subjects (Van der Veldt 2011), the 3 SNPs in NR1I3 (were analyzed separately and together as a haplotype for association with clinical endpoints (see Tables 1 and 2). Similarly, the 3 SNPs in ABCB1 (ATP-binding cassette, subfamily B, member 1) were also analyzed separately and together as a haplotype.
# Because of the limited sample size of the study, genetic analyses were performed without adjustment for baseline demographics or potential covariates, and p-values were not adjusted for multiple testing.
smiles,measurement,setting,value
COc1cc2c(Oc3ccc(NC(=O)C4(C(=O)Nc5ccc(F)cc5)CC4)cc3F)ccnc2cc1OCCCN1CCOCC1 [foretinib],Clusterin Percent Change from baseline,"[1]; Day 8, 30 mg/daily",25%
same,FASL Percent Change from baseline,"[1]; Day 8, 30 mg/daily",26%
same,GCSF Percent Change from baseline,"[1]; Day 8, 30 mg/daily",46%
same,IGFBP3 Percent Change from baseline,"[1]; Day 8, 30 mg/daily",19%
same,IL6 Percent Change from baseline,"[1]; Day 8, 30 mg/daily",58%
same,PLGF Percent Change from baseline,"[1]; Day 8, 30 mg/daily",105%
same,TRAIL Percent Change from baseline,"[1]; Day 8, 30 mg/daily",25%
same,TSP2 Percent Change from baseline,"[1]; Day 8, 30 mg/daily",−14%
same,VCAM1 Percent Change from baseline,"[1]; Day 8, 30 mg/daily",28%
same,VEGF Percent Change from baseline,"[1]; Day 8, 30 mg/daily",61%
same,ANG2 Percent Change from baseline,"[1]; Day 15, 30 mg/daily",−24%
same,FASL Percent Change from baseline,"[1]; Day 15, 30 mg/daily",20%
same,IGFBP3 Percent Change from baseline,"[1]; Day 15, 30 mg/daily",13%
same,IL6 Percent Change from baseline,"[1]; Day 15, 30 mg/daily",124%
same,IL8 Percent Change from baseline,"[1]; Day 15, 30 mg/daily",20%
same,PLGF Percent Change from baseline,"[1]; Day 15, 30 mg/daily",130%
same,SCF Percent Change from baseline,"[1]; Day 15, 30 mg/daily",−14%
same,TRAIL Percent Change from baseline,"[1]; Day 15, 30 mg/daily",17%
same,TSP2 Percent Change from baseline,"[1]; Day 15, 30 mg/daily",−19%
same,VCAM1 Percent Change from baseline,"[1]; Day 15, 30 mg/daily",43%
same,VEGF Percent Change from baseline,"[1]; Day 15, 30 mg/daily",83%
same,VEGFR2 Percent Change from baseline,"[1]; Day 15, 30 mg/daily",−21%
same,ANG2 Percent Change from baseline,"[1]; Day 22, 30 mg/daily",−17%
same,Clusterin Percent Change from baseline,"[1]; Day 22, 30 mg/daily",23%
same,FASL Percent Change from baseline,"[1]; Day 22, 30 mg/daily",44%
same,IGFBP3 Percent Change from baseline,"[1]; Day 22, 30 mg/daily",17%
same,IL6 Percent Change from baseline,"[1]; Day 22, 30 mg/daily",111%
same,PLGF Percent Change from baseline,"[1]; Day 22, 30 mg/daily",120%
same,TRAIL Percent Change from baseline,"[1]; Day 22, 30 mg/daily",24%
same,VCAM1 Percent Change from baseline,"[1]; Day 22, 30 mg/daily",64%
same,VEGF Percent Change from baseline,"[1]; Day 22, 30 mg/daily",83%
same,VEGFR2 Percent Change from baseline,"[1]; Day 22, 30 mg/daily",−21%
same,"longer TTP, lower vs higher levels of IL6","[2]; median split of baseline IL6 levels, 30 mg cohort",~6.7 month
same,deaths,[2]; patients in the highest quartile of baseline IL6,10/10
same,deaths,[2]; patients in the highest quartile of baseline IL8,9/10
same,deaths,[2]; patients in the lowest quartiles of baseline IL6 and IL8 (all patients censored),0/9
same,TTP,"[2]; patients with higher baseline levels of IL6 (median split), 30 mg cohort",2.9 months
same,TTP,"[2]; patients with lower baseline levels of IL6 (median split), 30 mg cohort",9.6 months
same,median survival,[2]; patients with unfavorable levels of IL6 and IL8 (group 1 in FIG. 6),6 months
same,sMET Percent Change from baseline,sMET,12%
same,Median TTP,[3]; ABCB1 rs1045642 TC or TT genotype,8 months and 8.21 (2.17-NE) months
same,median OS,[3]; NR1I3 CAT/CAT,5.9 months
same,Median TTP,"[3]; NR1I3 CAT/− or −/− (1 or no copy, other haplotypes)",6.21 (2.96-NE) months
same,Median TTP,[3]; NR1I3 haplotype CAT/CAT (2 copies),1.92 (1.51-NE*) months
same,median OS,[3]; NR1I3 other haplotypes,8.5 months
